Reference: US20190255073A1, “ESTERS OF 3-POLYAMINE DERIVATIVES OF BILE ACIDS FOR THE TREATMENT OF INFECTIONS” (VIRBAC, priority 2016, published 2019)
In brackets after ≈: the same amount, converted by molar mass. Read-outs that look alike come from different tables or passages of the source.

Experiments:
C. albicans = assay: Antifungal activity, cascade microdilution, C. albicans; format: cell-based, Candida albicans; conditions: 24 h; for IC50: Candida albicans, read-out: IC50 (μg/mL) C. albicans
P. aeruginosa (1051575) [1] = assay: Potentiation of the doxycycline activity at 2 μg/mL; format: cell-based, Pseudomonas aeruginosa; conditions: in combination with doxycycline 2 μg/mL; 24 h, 37°
S. aureus ATCC25923 = assay: MIC determination by microplate dilution, S. aureus human strain; format: cell-based, Staphylococcus aureus; conditions: Mueller-Hinton medium, 24 h, 37° C.; for MIC: Staphylococcus aureus, ATCC25923, Gram-positive
Outline: (§1)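 Bacteria were precultured 24 h at 37 °C, standardised by OD600 and seeded into Mueller-Hinton broth at OD 0.01 per well. Test compounds, from a 5 mg/mL DMSO/methanol stock, were diluted two-fold across the plate. After 24 h humid incubation at 37 °C, absorbance at 620 nm gave the MIC.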

E. coli ATCC28922 = assay: MIC determination by microplate dilution, E. coli human strain; format: cell-based, Escherichia coli; conditions: Mueller-Hinton medium, 24 h, 37° C.; for MIC: Escherichia coli, ATCC28922, Gram-negative
Outline: as §1

P. aeruginosa (1051575) [2] = assay: MIC determination by microplate dilution, P. aeruginosa animal strain; format: cell-based, Pseudomonas aeruginosa; conditions: Gram-negative, Mueller-Hinton medium, 24 h, 37° C.; for MIC: Pseudomonas aeruginosa
Outline: as §1

CHO-K1 cells = assay: WST1 cytotoxicity test on CHO-K1 cells; format: cell-based, Chinese hamster; conditions: for IC50: Cricetulus griseus
Outline: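 Viability read-out: WST-1 tetrazolium cleavage by mitochondrial dehydrogenases, 20 min at 37 °C, A450. Compounds added at rising concentrations, in duplicate, to CHO-K1 cells for 24 h (37 °C, 5% CO2). IC50, the concentration halving viability, fitted by nonlinear regression.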

P. aeruginosa ATCC27853 = assay: MIC determination by microplate dilution, P. aeruginosa human strain; format: cell-based, Pseudomonas aeruginosa; conditions: Mueller-Hinton medium, 24 h, 37° C.; for MIC: Pseudomonas aeruginosa, ATCC27853, Gram-negative
Outline: as §1

S. intermedius (1051997) = assay: MIC determination by microplate dilution, S. intermedius animal strain; format: cell-based, Staphylococcus intermedius; conditions: Gram-positive, Mueller-Hinton medium, 24 h, 37° C.; for MIC: Staphylococcus intermedius
Outline: as §1

E. faecalis ATCC29212 = assay: MIC determination by microplate dilution, E. faecalis human strain; format: cell-based, Enterococcus faecalis; conditions: Mueller-Hinton medium, 24 h, 37° C.; for MIC: Enterococcus faecalis, ATCC29212, Gram-positive
Outline: as §1

S. aureus (340) = assay: MIC determination by microplate dilution, S. aureus animal strain; format: cell-based, Staphylococcus aureus; conditions: Gram-positive, Mueller-Hinton medium, 24 h, 37° C.; for MIC: Staphylococcus aureus
Outline: as §1

E. coli (1956) = assay: MIC determination by microplate dilution, E. coli animal strain; format: cell-based, Escherichia coli; conditions: Gram-negative, Mueller-Hinton medium, 24 h, 37° C.; for MIC: Escherichia coli
Outline: as §1

P. aeruginosa (1051575) [3] = assay: Potentiation of erythromycin activity; format: cell-based, Pseudomonas aeruginosa; conditions: concentration of compound required with erythromycin 2 μg/mL
Procedure: This method requires the use of a 96-well plate: 100 μL of a liquid culture medium are placed in each well and then seeded with the microbial suspension prepared previously. The required volume to be seeded is calculated for an OD of 0.01, which corresponds to about 5×10^6 bacteria in each well. In this plate, the first line corresponds to a negative control (200 μL of sterile culture medium in each well), the second line corresponds to a positive control (100 μL of sterile culture medium+100 μL of the bacterial suspension), and the third line contains 192 μL of culture medium; 8 μL of compound of formula (I) to be tested are placed in each well. Thereafter, a cascade dilution is performed from this line. […] (1 mg dissolved in 20 mL) are then added to each well of the lines 3 to 8 to obtain a final antibiotic concentration of 2 μg/mL. 92 μL of bacterial suspension are then added to lines 3 to 8. […] After 24 hours of incubation at 37° C., 40 μL of nitro tetrazolium iodide are added to each well to reveal the presence of live bacteria by staining the medium pink.
The procedure is identical to that indicated in Example 5 above. 8 μL of an antibiotic solution under consideration (1 mg dissolved in 20 mL) are added to obtain a final antibiotic concentration of 2 μg/mL instead of 8 μL of a doxycycline solution.
The results are given in table V. They indicate the concentration of compound of formula (I) required to be able to restore the activity of the antibiotic under consideration.

[4] = CHO-K1, 24 h, read-out: IC50 (μg/mL) CHO
[5] = CHO-K1, read-out: IC50 (μg/mL) CHO
[6] = compounds as hydrochloride in water, MH medium
[7] = CHO-K1, CHO (Example 7), read-out: IC50 (μg/mL) CHO

Compound	IC50 (C. albicans)	MIC - P. aeruginosa (1051575): content of compound of formula (I) to restore the doxycycline activity (at 2 μg/mL) (P. aeruginosa (1051575) [1])	MIC (S. aureus ATCC25923)	MIC (E. coli ATCC28922)	MIC (P. aeruginosa (1051575) [2])	IC50 (CHO-K1 cells; [4])	IC50 (CHO-K1 cells; [5])	MIC (P. aeruginosa ATCC27853)	MIC (S. intermedius (1051997))	MIC (E. faecalis ATCC29212)	MIC (S. aureus (340))	MIC (E. coli (1956))	also measured
CC(C)OC(=O)CC[C@@H](C)[C@H]1CCC2C3CCC4C[C@@H](NCCCNCCCN)CC[C@]4(C)C3CC[C@@]21C (stereo partly drawn) [(16), isopropyl 3β-norspermidinolithocholate]	2 µg/mL (≈ 3.76 µM)	3 µg/mL	3.5 µg/mL (≈ 6.58 µM)	14 µg/mL (≈ 26.3 µM)	3.5 µg/mL (≈ 6.58 µM)	13 µg/mL (≈ 24.4 µM)	13 µg/mL (≈ 24.4 µM)	7 µg/mL (≈ 13.2 µM)	7 µg/mL (≈ 13.2 µM)	3.5 µg/mL (≈ 6.58 µM)	3.5 µg/mL (≈ 6.58 µM)	7 µg/mL (≈ 13.2 µM)	–
COC(=O)CC[C@@H](C)[C@H]1CCC2C3CCC4C[C@@H](NCCNCCNCCNCCN)CC[C@]4(C)C3C[C@H](O)[C@@]21C (stereo partly drawn) [(19), methyl 3β-(tetraethylenepentamine)deoxycholate]	4 µg/mL (≈ 6.92 µM)	4 µg/mL	4 µg/mL (≈ 6.92 µM)	7 µg/mL (≈ 12.1 µM)	7 µg/mL (≈ 12.1 µM)	40 µg/mL (≈ 69.2 µM)	40 µg/mL (≈ 69.2 µM)	15 µg/mL (≈ 26 µM)	7 µg/mL (≈ 12.1 µM)	7 µg/mL (≈ 12.1 µM)	7 µg/mL (≈ 12.1 µM)	29 µg/mL (≈ 50.2 µM)	–
CC(C)OC(=O)CC[C@@H](C)[C@H]1CCC2C3C(C[C@H](O)[C@@]21C)[C@@]1(C)CC[C@H](NCCNCCNCCNCCNCCN)CC1C[C@H]3O (stereo partly drawn) [(21), isopropyl 3β-(pentaethylenehexamine)cholate]	–	–	33 µg/mL (≈ 49.6 µM)	33 µg/mL (≈ 49.6 µM)	66 µg/mL (≈ 99.2 µM)	–	–	66 µg/mL (≈ 99.2 µM)	16 µg/mL (≈ 24.1 µM)	33 µg/mL (≈ 49.6 µM)	33 µg/mL (≈ 49.6 µM)	66 µg/mL (≈ 99.2 µM)	IC50 (C. albicans; [6]): 66 µg/mL (≈ 99.2 µM); IC50 (CHO-K1 cells; [7]): 105 µg/mL (≈ 158 µM)
CC(C)OC(=O)CC[C@@H](C)[C@H]1CCC2C3CCC4C[C@@H](NCCNCCNCCNCCNCCN)CC[C@]4(C)C3C[C@H](O)[C@@]21C (stereo partly drawn) [(27), isopropyl 3β-(pentaethylenehexamine)deoxycholate]	4 µg/mL (≈ 6.16 µM)	8 µg/mL	16 µg/mL (≈ 24.7 µM)	32 µg/mL (≈ 49.3 µM)	65 µg/mL (≈ 100 µM)	–	110 µg/mL (≈ 169 µM)	65 µg/mL (≈ 100 µM)	16 µg/mL (≈ 24.7 µM)	32 µg/mL (≈ 49.3 µM)	> 130 µg/mL	65 µg/mL (≈ 100 µM)	–
COC(=O)CC[C@@H](C)[C@H]1CCC2C3CCC4C[C@@H](NCCCN(C)CCCN)CC[C@]4(C)C3C[C@H](O)[C@@]21C (stereo partly drawn) [(31), methyl 3β-(bis(3-aminopropyl)methylamine)deoxycholate]	2 µg/mL (≈ 3.75 µM)	3 µg/mL	7 µg/mL (≈ 13.1 µM)	26 µg/mL (≈ 48.7 µM)	13 µg/mL (≈ 24.4 µM)	55 µg/mL (≈ 103 µM)	55 µg/mL (≈ 103 µM)	26 µg/mL (≈ 48.7 µM)	3 µg/mL (≈ 5.62 µM)	13 µg/mL (≈ 24.4 µM)	7 µg/mL (≈ 13.1 µM)	13 µg/mL (≈ 24.4 µM)	–
COC(=O)CC[C@@H](C)[C@H]1CCC2C3CCC4C[C@@H](NCCCN(CCCN)CCCN)CC[C@]4(C)C3C[C@H](O)[C@@]21C (stereo partly drawn) [(32), methyl 3β-(tris(3-aminopropyl)amine)deoxycholate]	2 µg/mL (≈ 3.47 µM)	4 µg/mL	4 µg/mL (≈ 6.93 µM)	7 µg/mL (≈ 12.1 µM)	7 µg/mL (≈ 12.1 µM)	30 µg/mL (≈ 52 µM)	30 µg/mL (≈ 52 µM)	14 µg/mL (≈ 24.3 µM)	7 µg/mL (≈ 12.1 µM)	14 µg/mL (≈ 24.3 µM)	7 µg/mL (≈ 12.1 µM)	30 µg/mL (≈ 52 µM)	–
CC(C)OC(=O)CC[C@@H](C)[C@H]1CCC2C3C(CC[C@@]21C)[C@@]1(C)CC[C@H](NCCN(CCN)CCN)CC1C[C@@H]3O (stereo partly drawn) [(43), isopropyl 3β-(tris(2-aminoethyl)amine)ursodeoxycholate]	–	–	–	–	14 µg/mL (≈ 24.9 µM)	–	–	–	7 µg/mL (≈ 12.4 µM)	–	–	56 µg/mL (≈ 99.5 µM)	MIC P. aeruginosa (1051575), compound + erythromycin (P. aeruginosa (1051575) [3]): 28 µg/mL
CC(C)OC(=O)CC[C@@H](C)[C@H]1CCC2C3C(CC[C@@]21C)[C@@]1(C)CC[C@H](NCCCNCCCN)CC1C[C@@H]3O (stereo partly drawn) [Compound (14), isopropyl 3β-norspermidinoursodeoxycholate]	–	–	–	–	110 µg/mL (≈ 201 µM)	–	–	–	12.5 µg/mL (≈ 22.8 µM)	–	55 µg/mL (≈ 100 µM)	110 µg/mL (≈ 201 µM)	IC50 (C. albicans; [6]): 28 µg/mL (≈ 51.1 µM); IC50 (CHO-K1 cells; [7]): 200 µg/mL (≈ 365 µM)
methyl 3β-(bis(3-aminopropyl)methylamine)ursodeoxycholate [(53)]	–	7 µg/mL	–	–	–	–	–	–	–	–	–	–	IC50 (μg/mL) C. albicans (C. albicans; [6]): 3 µg/mL; MIC S. aureus Human ATCC25923 (S. aureus ATCC25923; Gram-positive): 27 µg/mL; MIC E. coli Human ATCC28922 (E. coli ATCC28922; Gram-negative): 55 µg/mL; MIC P. aeruginosa Animal (1051575) (P. aeruginosa (1051575) [2]): 55 µg/mL; IC50 (μg/mL) CHO (CHO-K1 cells; CHO (Example 7)): 50 µg/mL; IC50 (μg/mL) CHO (CHO-K1 cells; Table III, WST1, CHO-K1 cells, 24 h, concentration reducing cell viability by 50%): 50 µg/mL; MIC P. aeruginosa Human ATCC27853 (P. aeruginosa ATCC27853; Gram-negative): 55 µg/mL; MIC S. intermedius Animal (1051997) (S. intermedius (1051997)): 7 µg/mL; MIC E. faecalis Human ATCC29212 (E. faecalis ATCC29212; Gram-positive): 55 µg/mL; MIC S. aureus Animal (340) (S. aureus (340)): 27 µg/mL; MIC E. coli Animal (1956) (E. coli (1956)): 55 µg/mL
